Results on nine compounds are retold here after patent US10364227B2, “Therapeutic compounds” (ARIZONA BOARD OF REGENTS ON BEHALF OF ARIZONA STATE …, priority 2015, dated 2019).

The structures appear in SMILES notation.

Assay in one series: not given
To be noted: calculated value, James et al. (2005) J Biol. Chem. 280, 21295; cited from earlier work.
Take `COC1=C(OC)C(=O)C(C/C=C(\C)CC/C=C(\C)CC/C=C(\C)CC/C=C(\C)CC/C=C(\C)CC/C=C(\C)CC/C=C(\C)CC/C=C(\C)CC/C=C(\C)CCC=C(C)C)=C(C)C1=O` [coenzyme Q10]: the “calculated octanol-water partition coefficient” value is recorded as > 10^20.

Another series in a line: Bioavailability in a mouse model (blood level after oral gavage). Format: in vivo. As to conditions: whole blood, 100 mg/kg oral gavage in olive oil, blood sample 6 h after gavage, quantified by HPLC. On the procedure:
Bioavailability is an important characteristic of many therapeutic agents. Accordingly, certain compounds disclosed herein were tested for bioavailability in a mouse model.
The test compound was prepared on the day of dose administration by dissolving the appropriate amount of test article in olive oil to reach the proper concentrations.
The dose of 100 mg/kg body weight (total volume of administration was <120 μL) was used for testing. For example, a mouse whose body weight is 20 g would need 2 mg of test article in oral gavage. Mice were food deprived overnight. On the experimental day, mice were weighed to obtain dosage information before oral gavage was performed. Blood and brain samples were collected at the desired post-dose time points after oral gavage. Brain samples were perfused to exclude blood as a factor in the analysis of bioavailability.
In turn, `CCCCCCCCCCCCCCCCc1nc(N2CCC2)nc(OC2CCC2)c1O` [Compound 12, 2-(Azetidin-1-yl)-4-cyclobutanoxy-6-hexadecylpyrimidin-5-ol] gave a concentration at 6 h of around 4 µM.

Assay in another series: not given
Conditions: not given
What is called melting point is the temperature, or range, at which the solid turns liquid. As to `CCCCCCCCCCCCCCCCc1nc(N2CCCC2)nc(OC2CCC2)c1O` [Compound 14, 4-Cyclobutoxy-2-(pyrrolidin-1-yl)-6-hexadecylpyrimidin-5-ol], the melting point was in the range of 74 to 76 °C.

Regarding `CCCCCCCCCCCCCCCCc1nc(N2CCCCC2)nc(OC2CCC2)c1O` [Compound 15, 4-Cyclobutoxy-2-(piperidin-1-yl)-6-hexadecylpyrimidin-5-ol], the melting point fell in the range of 78 to 79 °C.

Consider `CCCCCCCCCCCCCCCOc1nc(N2CCC2)nc(C)c1O` [Compound 11, 2-(Azetidin-1-yl)-4-methyl-6-(pentadecyloxy)pyrimidin-5-ol], for which the melting point is 83 to 85 °C.

Compound `[2H]C([2H])([2H])N(c1nc(CCCCCCCCCCCCCCCC)c(O)c(OC2CCC2)n1)C([2H])([2H])[2H]` [Compound 13, 4-Cyclobutoxy-2-(N,N-dimethylamino)-6-hexadecylpyrimidin-5-ol-d6] showed a melting point of 72 to 73 °C.

`CCCCCCCCCCCCCCCCc1nc(N2CCC2)nc(OCC)c1O` [Compound 9, 2-(Azetidin-1-yl)-4-ethoxy-6-hexadecylpyrimidin-5-ol]: the melting point was in the range of 79 to 80 °C.

`[2H]C(CCCCCCCCCCCCCCC)c1nc(N(C([2H])([2H])[2H])C([2H])([2H])[2H])nc(OC([2H])([2H])[2H])c1O` (stereo not drawn) [Compound 2, 2-(N,N-dimethylamino-d6)-4-(1-hexadecyl-d1)-6-(methoxy-d3)-pyrimidin-5-ol] came in with a melting point of 75 to 76 °C.

For the compound `CCCCCCCCCCCCCCCCc1nc(N2CCC2)nc(OC)c1O` [Compound 8, 2-(Azetidin-1-yl)-4-methoxy-6-hexadecylpyrimidin-5-ol], the melting point lay within 59 to 60 °C.
